In patent US20220226473A1, “Nucleic acid nanocarrier drug and preparation method thereof, pharmaceutical composition and application thereof” (BAI YAO ZHI DA (BEIJING) NANOBIO TECHNOLOGY CO., LTD., priority 2018, published 2022):
{Biotin} = biotin of the strand; {Cy5} = Cy5 fluorescent label

Tests used:
SGC7901 cells = assay: Cytotoxicity of RNAh-Biotin-quasar670-hdcp nanoparticles; format: cell-based
SH-SY5Y cells [1] = assay: Cytotoxicity in SH-SY5Y cells, CellTiter-Glo (Embodiment 8); format: cell-based
Procedure: (1) Using the RPMI1640+10% FBS+1% PS medium to culture the SH-SY5Y cells at 37 DEG C and 5% CO2.
(2) Collecting the cells, centrifuging at 800 rpm for 5 minutes, resuspending the medium, adjusting the cell concentration, and adding to the 96-well plate in a volume of 5000 cells per 90 μL.
(3) Diluting a sample to be tested with the culture medium on the next day, respectively adding 200 nM to each sample, herein each sample has 4 replicate wells for replication.
(4) After being cultured for 72 hours, adding 100 μL of the CTG reagent to each well, shaking for 2 minutes, and standing at the room temperature for 10 minutes, herein a whole process is protected from light.
(5) Finally using Soft Max Pro5 software to read.

SH-SY5Y cells [2] = assay: Cytotoxicity of RNAh-Biotin-quasar670-aspirin nanoparticles, CTG kit; format: cell-based; details: highest administration concentration 10 μM
Procedure: Experiment purpose: an effect of a compound on proliferation of a target tumor cell line is researched.
Experiment design: the compound is diluted in 8 concentration gradients and sequentially added to the target tumor cell line and incubated for 72 hours, the CTG kit is used to detect the effect of the compound on the cell proliferation.

MOLT4 cells = assay: Cytotoxicity of RNAh-Bio-670-MTX nanoparticles, CTG; format: cell-based, human; details: maximum administration concentration 5 μm
Procedure: 1) Using the RPMI1640+10% FBS+1% PS medium to culture the MOLT4 cells at 37 DEG C. and 5% CO2.
2) Collecting the cells, centrifuging at 800 rpm for 5 minutes, resuspending the medium, adjusting the cell concentration, and adding to the 96-we plate in a volume of 5000 cells per 90 μL. […]
4) After being cultured for 72 hours, adding 100 μL of the CTG reagent to each well, shaking for 2 minutes, and standing at the room temperature for 10 minutes, herein a whole process is protected from light.
5) Finally using Soft Max Pro5 software to read.

HL60 cells = assay: Cytotoxicity of RNAh-Bio-670-EPB nanoparticles, CellTiter-Glo; format: cell-based
Procedure: Preparing a freshly prepared reagent into a corresponding volume container, and adding PBS to be quantified to 10 μM.
Cells are cultured at 37 DEG C. and 5% CO2 in a corresponding basal medium in which 10% FBS and 1% PS are respectively added. The cell density used in the experiment is above 80%. The cells are collected, and centrifuged at 1000 rpm for 4 minutes, the medium is resuspended, the cell concentration is adjusted, and it is added to the 96-well plate in a volume of 3000 cells per 50 μL, and each group has 3 replicate wells.
After 24 hours, the compound solution is transferred to each well by 50 μL/well.
The above cells after administration are cultured for 72 hours under a condition of 37 DEG C and 5% CO2.
The well plate is brought to a room temperature in advance and stands for 30 minutes, 100 μL of a CellTiter-Glo® reagent is added to each well of the well plate and mixed for 2 minutes on a shaker to promote cell lysis. The Perkin Elmer Envision 2104 Multilabel Reader is used to read values and the values are recorded.
The acquired experiment data is analyzed and processed by using excel software, and GraphPad Prism 5 software is used for curve fitting analysis.

MCF-7 cells [3] = assay: Cytotoxicity of RNAh-Bio-670-THP and RNAh-Bio-670-DNR nanoparticles, CTG; format: cell-based, human; details: MCF-7, 72 h, 200 nM
Procedure: 3) Diluting a sample to be tested with the culture medium on the next day, respectively adding 200 nM to each sample, herein each sample has 4 replicate wells for replication.
Samples to be tested: small molecular drug THP and RNAh-Bio-670-THP nanoparticles;
1) Except that it is the MCF-7 cells, the rest are the same as (III).

NCI-H1975 cells [4] = assay: Cytotoxicity of DNAh-Bio-EGFRapt-Cy5-EPB nanoparticles, CellTiter 96 AQueous One Solution; format: cell-based; details: for IC50: NCI-H1975, 96 hours
Procedure: GraphPad Prism5.0 software is used to process data graphically. In order to calculate the IC50, “W”-shaped non-linear regression analysis is performed on the data to match a suitable dosage-effect curve. A calculation formula of the cell survival rate is as follows, the IC50 may be automatically calculated in the GraphPad Prism 5.0.

MCF-7 cells [5] = assay: as above; format: cell-based, human
Description: GraphPad Prism5.0 software is used to process data graphically. […] A calculation formula of the cell survival rate is as follows, the IC50 may be automatically calculated in the GraphPad Prism 5.0. […]

HepG2 cells = assay: Cytotoxicity of RNAh-Biotin-quasar670-flu nanoparticles; format: cell-based
Procedure: I. Samples to be tested: small molecular […] chemical drug and RNAh-Biotin-quasar670-flu nanoparticles.
In order to further determine that the RNA nanoparticles without carrying the […] have no apparent cytotoxicity to the HepG2 cells, the inventor further designs a toxicity experiment of the RNAh-Biotin-FAM (FAM is a fluorescent marker), a targeted fluorescent carrier, to the HepG2 cells (a drug administration gradient in the experiment is as follows: 100 μM, 31.6 μM, 10 μM, 3.16 μM, 1 μM, 316 nM, 100 nM, 31.6 nM, 10 nM, and 0 (10% PBS)), the results thereof are shown in Table 134 and FIG. 95.

MCF-7 cells [6] = assay: Flow cytometry binding of DNAh-Bio-EGFRapt-Cy5-EPB nanoparticles; format: cell-based, human; details: 2 hours
Procedure: (§1) MCF-7 (source: ATCC, and article number: HTB-22), NCI-H1975 (source: ATCC, and article number: CRL-5008); a culture medium is MEM+10% FBS, and culture conditions are 37 DEG C., 5% CO2, and saturated humidity.
(§2) 1. Adjusting a cell state to a logarithmic growth phase, changing the medium to a medium without biotin and folic acid, and incubating overnight in the incubator at 37 DEG C;
(§3) 2. dissolving the substances to be tested and preparing the to-be-tested substance stock solution;
(§4) 3. digesting and collecting the single-cell suspension and counting, adjusting the cell density to 2×10^5/mL, planting 1 mL/well into the 24-well plate;
(§5) 4. respectively adding the substances to be tested to the corresponding cell wells, herein the final concentration is 2 μM, shaking and mixing uniformly;
(§6) 5. placing the cell plate in the incubator at 37 DEG C. and incubating for 2 hours;
(§7) 6. after the incubation, pancreatin-digesting and collecting the cell suspension;
(§8) 7. centrifugally collecting a cell precipitation, and washing twice with the PBS;
(§9) 8. finally, resuspending the cell precipitation with 300 μL of the PBS, and performing a flow cytometric on-machine detection;
(§10) 9. fluorescence carrier or epirubicin detection channels: excitation light wavelength: 488 nm, and emission light channel: 560 nm; and […]

SKOV3 cells [7] = assay: Flow cytometer binding of pirarubicin-loaded DNA nanoparticles; format: cell-based, human; details: SKOV3, 2 μM, 2 hours
Procedure: (§11) 1). Adjusting a cell state to a logarithmic growth phase, changing the medium to a medium without biotin and folic acid, and incubating overnight in the incubator at 37 DEG C;
(§12) 2). dissolving the substances to be tested and preparing the to-be-tested substance stock solution;
(§13) 3). digesting and collecting the single-cell suspension and counting, adjusting the cell density to 2×10^5/mL, planting 1 mL/well into the 24-well plate;
(§14) 4). respectively adding the substances to be tested to the corresponding cell wells, herein the final concentration is 2 μM, shaking and mixing uniformly;
(§15) 5). placing the cell plate in the Incubator at 37 DEG C. and Incubating for 2 hours;
(§16) 6). after the incubation, pancreatin-digesting and collecting the cell suspension;
(§17) 7). centrifugally collecting a cell precipitation, and washing twice with the PBS;
(§18) 8). finally, resuspending the cell precipitation with 300 μL of the PBS, and performing a flow cytometric on-machine detection; herein detection channels of fluorescence carrier or pirarubicin targeted drug: excitation light wavelength: 488 nm, and emission light channel: 560 nm; and […]

SGC-7901 cells [8] = assay: as above; format: cell-based, human; details: SGC-7901, 2 μM, 2 hours
Procedure: as §11, §12, §13, §14, §15, §16, §17, §18

SKOV3 cells [9] = assay: Cytotoxicity of DNAh-Biotin-EGFRapt-Cy5-THP nanoparticles; format: cell-based, human; details: SKOV3
Procedure: (§19) 2) adjusting the cell density to 2.22×10^4/mL with a growth medium:
(§20) 3) planting 90 μL/well of cell suspension into the 96-well plate, herein the number of cells per well in the plate is 2000;
(§21) 4) placing the planted cell plate in the incubator at 37 DEG C. and incubating overnight;
(§22) 5) performing 3.16-fold gradient dilution on the compound at 9 concentration points;
(§23) 6) taking out the cell culture plate, and adding 10 μL/well of 10× concentration drug working solution to the corresponding wells of the cell culture plate, herein three replicate holes are made for each concentration, and the final drug action concentration is shown in the table below.
(§24) 7) placing the cell culture plate in the incubator and continuously incubating for 96 hours;
(§25) 8) placing the CellTiter 96@D AQueous One Solution reagent at the room temperature and thawing for 90 minutes or thawing in a water bath at 37 DEG C., and then equilibrating at the room temperature for 30 minutes;
(§26) 9) adding 20 μL/well of the CellTiter 96® AQueous One Solution reagent to the cell culture plate;
(§27) 10) placing the cell culture plate in the incubator at 37 DEG C. and continuously incubating for 3 hours;
(§28) 11) using the microplate reader to read a OD490 value of each well in the cell plate; and
(§29) 12) data processing and analysis.
(§30) GraphPad Prism5.0 software is used to process data graphically. In order to calculate the IC50, […] non-linear regression analysis is performed on the data to match a suitable dosage-effect curve. A calculation formula of the cell survival rate is as follows, the IC50 may be automatically calculated in the GraphPad Prism 5.0.
(§31) Cell survival rate (%)=(ODtest well−ODblank control)/(ODnegative control−ODblank control)×100%.
(§32) II. Experiment Device and Method Same as (II)

SGC-7901 cells [10] = assay: as above; format: cell-based, human; details: SGC-7901
Procedure: as §19, §20, §21, §22, §23, §24, §25, §26, §27, §28, §29, §30, §31, §32

NCI-H1975 cells [11] = assay: Flow cytometry binding of DNAh-Bio-EGFRapt-Cy5-EPB nanoparticles; format: cell-based; details: 2 hours
Procedure: as §1, §2, §3, §4, §5, §6, §7, §8, §9, §10

[12] = administration concentration 5 μM

With CC[C@@]1(O)C(=O)OCc2c1cc1n(c2=O)Cc2cc3cc(O)ccc3nc2-1 [10-hydroxycamptothecin] the “Cell inhibition rate (%) when administration concentration is 5 μM” value (SGC7901 cells; SGC7901, 72 h, 5 μM) was 75.43% and the “cell inhibition rate (%), SGC7901 cells” value (SGC7901 cells; [12]) was 75.43%.

With N.N.[Cl][Pt][Cl] [Cisplatin] the IC50 (SH-SY5Y cells [1]; highest administration concentration 5 μM) was 510 nM, the “inhibition rate to the SH-SY5Y cells” value (SH-SY5Y cells [2]) was 99.81% and the “inhibition rate to the MOLT4 cell proliferation” value (MOLT4 cells) was 99.94%. For the same molecule, the “inhibition rate to the HL60 cells” value (HL60 cells; highest administration concentration 10 μM) was 99.96%.

In the case of COc1cccc2c1C(=O)c1c(O)c3c(c(O)c1C2=O)C[C@@](O)(C(C)=O)C[C@@H]3O[C@H]1C[C@H](N)[C@H](O)[C@H](C)O1 [Daunorubicin (DNR)], the “cell survival rate (%)” value (MCF-7 cells [3]) is reported as 17.33%.

In the case of COc1cccc2c1C(=O)c1c(O)c3c(c(O)c1C2=O)C[C@@](O)(C(=O)CO)C[C@@H]3O[C@H]1C[C@H](N)[C@@H](O)[C@H](C)O1 [EPB, epirubicin], the “toxicity to NCI-H1975 cells” value (NCI-H1975 cells [4]; 96 hours) is reported as “toxic to the NCI-H1975 cells”, the IC50 (NCI-H1975 cells [4]; Homo sapiens) is reported as 30.6 nM and the “toxicity to MCF-7 cells” value (MCF-7 cells [5]; 96 hours) is reported as “toxic to the MCF-7 cells”. The IC50 (MCF-7 cells [5]; Homo sapiens, MCF7, MCF-7, 96 hours) was 84.7 nM, the IC50 (HL60 cells; Homo sapiens, HL-60, 72 hours, read-out: IC50, HL60 cell proliferation) was 69.8 nM and the inhibition at 5 µM (HL60 cells; Homo sapiens, HL-60, concentration 5 μM, 72 hours, read-out: inhibition rate on HL60 cells) was 99.2%.

For COc1cccc2c1C(=O)c1c(O)c3c(c(O)c1C2=O)C[C@@](O)(C(=O)CO)C[C@@H]3O[C@H]1C[C@H](N)[C@H](O[C@@H]2CCCCO2)[C@H](C)O1 [Pirarubicin (THP)], the “cell survival rate (%)” value (MCF-7 cells [3]) was 13.85%.

For Nc1c2c(nc3ccccc13)CCCC2 [Tacrine, tacrine], the “cell proliferation rate (%)” value (SH-SY5Y cells [1]; 200 nM, 72 h) was 39.75%.

In the case of O=c1[nH]cc(F)c(=O)[nH]1 [pentafluorouracil], the “Cell inhibition rate (%) when administration concentration is 5 μM” value (HepG2 cells; HepG2, 72 h, 5 μM) is reported as 39.02% and the “cell inhibition rate (%), HepG2 cells” value (HepG2 cells; [12]) is reported as 39.02%.

B1: DNAh-Bio-EGFRapt-Cy5: targeted fluorescent carrier: DNA nanoparticle, strands SEQ ID NO: 172-174, 5′ biotin, EGFRapt, 3′ Cy5, thio-modified ends (nucleic acid)
chain 1: CGCGCGCCCACGAGCGTTCCGGGCGCGCCTTAGTAACGTGCTTTGATGTCGATTCGACAGGAGGC
chain 2: GCGCCCGGTTCGCCGCCAGCCGCCGC
chain 3: GCGGCGGCAGGCGGCCATAGCCGTGGGCGCGCG
modifications: chain 1: DNA, 5' {Biotin}, backbone not given here; chain 2: DNA, backbone not given here; chain 3: DNA, 3' {Cy5}, backbone not given here; first and last three bases thio-modified, DNA nanoparticle with EGFR aptamer, further chemistry not fully specified
In the case of B1, the “binding rate to MCF-7 cells” value (MCF-7 cells [6]; 2 μM) is reported as 100%, the “Binding rate (%)” value (MCF-7 cells [6]; MCF-7, 2 μM) is reported as 99.97% and the “Binding rate (%)” value (SKOV3 cells [7]) is reported as 100%. For the same molecule, the “Binding rate (%)” value (SGC-7901 cells [8]) was 99.99%, the IC50 (NCI-H1975 cells [4]) was > 316 nM and the IC50 (SKOV3 cells [9]) was > 1000 nM. For the same molecule, the IC50 (SGC-7901 cells [10]) was > 316 nM, the “binding rate to NCI-H1975 cells” value (NCI-H1975 cells [11]; 2 μM) was 100% and the “Binding rate (%)” value (NCI-H1975 cells [11]; NCI-H1975, 2 μM) was 100%.
